{"source": "patent US10858384B2", "about": "“Synthetic molecule constructs” (KODE BIOTECH LIMITED, priority 2004, dated 2020)", "key": {"[1]": {"test_system": "endometrial cells and embryos", "test": "Attachment of transformed endometrial cells to modified embryos", "type": "cell-based", "settings": "15 minutes at 37° C.", "procedure": "Modified embryos (BioG-Avidin-BioIgG^B and BioG-Avidin-BioIgM^A) were prepared in accordance with the methods described in the specification accompanying the international application no. PCT/NZ03/00059 (published as WO03/087346).\nTwo concave glass slides were prepared, one with two wells of synthetic glycolipid Atri-sp-Ad-DOPE (I) inserted endometrial cells and the other with two wells of synthetic glycolipid Btri-sp-Ad-DOPE (VI) inserted endometrial cells.\nThe embryos were surrounded with endometrial cells. The wells were covered with mineral oil and incubated for 15 minutes at 37° C. Using a wide bore handling pipette each group of embryos were carefully transferred to a fresh drop of M2 media. The embryos were gently washed. The embryos were gently transferred into 2 μL of M2 media on a marked microscope slide. Each drop was overlaid with mineral oil\nUnder a central plane of focus on an Olympus microscope the number of endometrial cells adhered to the embryos in each group was assessed. The number of cells adhered to each embryo was recorded."}, "[2]": {"test": "Solubility of synthetic glycolipids in hot PBS", "type": "physicochemical", "settings": "hot PBS", "description": "In the context of this description the phrase “water soluble” means a stable, single phase system is formed when the synthetic molecule construct is contacted with water or saline (such as PBS) in the absence of organic solvents or detergents, and the term “solution” has a corresponding meaning.\nFor use in the transformation of cells the first criterion that synthetic glycolipids must satisfy is that they are soluble in aqueous solvents, e.g. phosphate buffered saline.\nInitial tests on the molecules were to establish solubility and thus eliminate those molecules that were unsuitable for use in the transformation of cells."}, "[3]": {"test_system": "group O red blood cells (RBCs)", "test": "Tube serology of group O RBCs transformed at 37° C. with synthetic glycolipids", "type": "cell-based, human", "settings": "0.25 mg/mL, Day 44", "procedure": "(§1) Washed packed group O red blood cells (RBCs) (3 parts by volume) and the synthetic glycolipid solution (1 part by volume, varying concentrations) were added to an eppendorf tube. The tube was incubated in a 37° C. waterbath for one hour, mixing every 15 minutes. […]\n(§2) Tube serology and Diamed gel-card results for RBCs transformed with the different synthetic molecule constructs are provided in Table 38. Results for the stability of the RBCs transformed with the different synthetic glycolipids at different concentrations are provided in Tables 39 to 44."}, "[4]": {"test_system": "group O red blood cells (RBCs)", "test": "Diamed gel-card agglutination of group O RBCs transformed at 37° C. with synthetic glycolipids", "type": "cell-based, human", "parameters": "scale not given here", "settings": "0.25 mg/mL; Day 116; Cellstab", "procedure": "as §1, §2"}, "RBCs [5]": {"test_system": "RBCs", "test": "Evaluation of insertion of different lipid tails by agglutination with the relevant antisera", "type": "cell-based", "parameters": "scale not given here", "settings": "second series", "description": "Transformation of RBCs with synthetic glycolipids with different lipid tails was first evaluated (Tables 22 and 24)."}, "RBCs [6]": {"test_system": "RBCs", "test": "Insertion efficiency: post-transformation supernatant solutions, tube serology", "type": "cell-based", "procedure": "The post-transformation supernatant solutions (from Atri-sp-Ad-DOPE (I) at 0.08 mg/mL, 0.05 mg/mL and 0.03 mg/mL, and Btri-sp-Ad-DOPE (VI) at 0.6 mg/mL, 20 μL) were added neat and in a 1:2 dilution to washed, packed RBCs (60 μL). The tubes were incubated in a 37° C. waterbath for one hour, with mixing taking place every 15 minutes.\nThe transformed RBCs were washed 3× with PBS and then suspended in Cellstab™ at the appropriate concentration for serology testing."}, "RBCs [7]": {"test_system": "RBCs", "test": "Detectable transformation ability of synthetic glycolipids (agglutination)", "type": "cell-based", "settings": "agglutination with the appropriate antibody", "description": "The synthetic glycolipid must also be able to insert into the membrane and be recognisable to the appropriate antibody for transformation to be detected by agglutination. Initial tests on the molecules were to establish solubility and thus eliminate those molecules that were unsuitable for use in the transformation of cells."}, "embryos": {"test_system": "embryos", "test": "Embryo modification, test for insertion by fluorescence", "type": "cell-based", "procedure": "The embryo zona pellucida was removed by treating embryos with 0.5% pronase in a 37° C. oven for 6 minutes or until all zonas were removed. Micro-drops were prepared by adding 5 μl of synthetic glycolipid Atri-sp-Ad-DOPE (I) or Btri-sp-Ad-DOPE (VI), at a concentration of 1 mg/mL to a 45 μl drop of M2 media overlaid with mineral oil. All embryo groups were incubated in the 50 μl micro-drops for 1 hour at 37° C. Embryos from experimental and control groups were washed 3× with M2 media.\nEmbryos from experimental and control groups were placed into a micro-drop of corresponding antibody and incubated for 30 min at 37° C. Embryos from experimental and control groups were washed 3× with M2 media.\nEmbryos from all experimental and control groups were placed into micro-drops of anti-mouse Ig FITC (1:50 dilution anti-mouse Ig FITC in M2) and incubated for 30 min at 37° C. Embryos from experimental and control groups were washed 3× with M2 media. Embryos were mounted on microscope slides in a 5 μl drop of M2 and the drops overlaid with oil.\nThe slides were viewed under a fluorescence microscope."}, "RBCs [8]": {"test_system": "RBCs", "test": "Insertion efficiency: post-transformation solutions concentrated 20x, Diamed serology", "type": "cell-based", "settings": "post-transformation solution concentrated 20×, from 0.60 mg/mL", "procedure": "In addition, the post-transformation solutions were concentrated 20× and compared in parallel with the transformation solutions of known concentration. Only the post-transformation solutions derived from the 0.08 mg/mL Atri-sp-Ad-DOPE (I) and 0.6 mg/mL Btri-sp-Ad-DOPE (VI) solutions were tested.\nPost-transformation solutions (20 μL) were dialysed (pore size 500 Da) against de-ionised water for 2 days. The samples were left to dry in a fumehood for 10 days. At the end of this time they were transferred into a rotavapor flask and set on the rotavapor to rotate under vacuum with no heat overnight. Samples were dried in a water bath at 40° C. and washed over into smaller vessels with chloroform-methanol 2:1 leaving significant amounts of dried cellular material. The chloroform-methanol 2:1 washings were dried down, washed over again into test-tubes with chloroform-methanol 2:1 and dried down. These samples were redissolved in 1 mL of 1× PBS and used for transformation experiments. The cellular material in the bottom of the flasks was washed out with water into another set of tubes.\nThe post-transformation solutions (from Atri-sp-Ad-DOPE (I) at 0.08 mg/mL and Btri-sp-Ad-DOPE (VI) at 0.6 mg/mL, 20 μL) were added to washed, packed RBCs (60 μL). […]"}}}
{"smiles": "CCCCCCCC/C=C\\CCCCCCCC(=O)OC[C@H](COP(=O)(O)OCCNC(=O)CCCCC(=O)NCCCO[C@@H]1O[C@H](CO)[C@H](O)[C@H](O[C@H]2O[C@H](CO)[C@H](O)[C@H](O)[C@H]2O)[C@H]1O[C@@H]1O[C@@H](C)[C@@H](O)[C@@H](O)[C@@H]1O)OC(=O)CCCCCCC/C=C\\CCCCCCCC", "note": "[Btri-sp-Ad-DOPE (VI)]", "values": [{"measurement": "Average number of endometrial cells attached to modified embryos", "setting": "[1]; embryos modified with BioG-Avidin-BioIgG^B", "result": 6.7}, {"measurement": "Average number of endometrial cells attached to modified embryos", "setting": "[1]; embryos modified with BioG-Avidin-BioIgM^A", "result": 3.4}, {"measurement": "Water solubility", "setting": "[2]", "result": "Yes"}, {"measurement": "Agglutination, manual tube serology, Bioclone anti-B", "setting": "[3]; Alsevers", "result": "w+"}, {"measurement": "Agglutination, manual tube serology, Bioclone anti-B", "setting": "[3]; Cellstab", "result": "^‡"}, {"measurement": "Agglutination, Diamed gel-cards, Albaclone anti-B", "setting": "[4]", "result": 0}, {"measurement": "Agglutination score", "setting": "RBCs [5]; 60 μg/mL, Alba anti-B", "result": 0}, {"measurement": "Agglutination score", "setting": "RBCs [5]; 60 μg/mL, Bio anti-B", "result": 0}, {"measurement": "Agglutination score", "setting": "RBCs [5]; 125 μg/mL, Alba anti-B", "result": 0}, {"measurement": "Agglutination score", "setting": "RBCs [5]; 125 μg/mL, Bio anti-B", "result": 0}, {"measurement": "Score (tube serology)", "setting": "RBCs [6]; 1:2, pre-trans conc 0.60 mg/mL", "result": 0}, {"measurement": "Score (tube serology)", "setting": "RBCs [6]; neat, pre-trans conc 0.60 mg/mL", "result": "vw+"}, {"measurement": "Detectable transformation ability", "setting": "RBCs [7]", "result": "Yes"}, {"measurement": "Transformation of embryos visualised by fluorescence", "setting": "embryos; 1 mg/mL stock in micro-drop, 1 hour 37° C.", "result": "negative result"}, {"measurement": "Fluorescence score after incubation with IgFITC Probe", "setting": "embryos; embryos, inserted antigen 1 mg/mL, 1 hour at 37° C., 1° antibody Anti-B Bioclone, anti-mouse Ig FITC 1:50", "result": 0}, {"measurement": "Score (Diamed serology)", "setting": "RBCs [8]", "result": 0}]}
